Measured values reported in patent US20260055102A1 (Redx Pharma Limited, priority 2022, published 2026).

Experiments:
[1] = biological target: Recombinant human DDR1 (aa440-876 containing a GST tag) (Homo sapiens (Human), UniProt Q08345); experiment: LanthaScreen Eu Kinase Binding Assay DDR1; settings: Kinase Tracer 178 5 nM, at least two independent replicates; for IC50: read-out: DDR1 pIC50 (converted)
Description: (§1) DDR1 and DDR2 Biochemical Assay Method The capacity of compounds to bind to DDR1 and DDR2 was quantified using a LanthaScreen Eu Kinase Binding Assay. Recombinant human DDR1 (2.5 nM; aa440-876 containing a GST tag) and DDR2 (1.75 nM; aa427-855 containing a GST tag) were diluted in assay buffer (50 mM HEPES pH7.3, 10 mM MgCl2, 1 mM EGTA and 0.01% Tween) with various concentrations of compound in a 384-well plate and a volume of 5 uL. After a 30-minute incubation at room temperature, 2.5 uL of Eu-anti GST antibody (diluted to 1 nM in assay buffer) plus Kinase Tracer 178 (diluted in assay buffer to 5 nM for DDR1 and 10 nM for DDR2) were added to the plate. Following 60-minute incubation at room temperature, time-resolved fluorescence was measured on a BMG Labtech PHERAstar plate reader. DMSO (1%) and reference compound (1 μM) were used to generate the Max and Min assay signals, respectively. Data was analysed using a four-parameter logistic model to calculate IC50 values, with at least two independent replicates were performed for each compound.

[2] = biological target: Recombinant human DDR2 (aa427-855 containing a GST tag) (Homo sapiens (Human), UniProt Q16832); experiment: LanthaScreen Eu Kinase Binding Assay DDR2; settings: Kinase Tracer 178 10 nM, at least two independent replicates; for IC50: read-out: DDR2 pIC50 (converted)
Description: as §1

Sequence of Recombinant human DDR2 (aa427-855 containing a GST tag) (Q16832 427-855): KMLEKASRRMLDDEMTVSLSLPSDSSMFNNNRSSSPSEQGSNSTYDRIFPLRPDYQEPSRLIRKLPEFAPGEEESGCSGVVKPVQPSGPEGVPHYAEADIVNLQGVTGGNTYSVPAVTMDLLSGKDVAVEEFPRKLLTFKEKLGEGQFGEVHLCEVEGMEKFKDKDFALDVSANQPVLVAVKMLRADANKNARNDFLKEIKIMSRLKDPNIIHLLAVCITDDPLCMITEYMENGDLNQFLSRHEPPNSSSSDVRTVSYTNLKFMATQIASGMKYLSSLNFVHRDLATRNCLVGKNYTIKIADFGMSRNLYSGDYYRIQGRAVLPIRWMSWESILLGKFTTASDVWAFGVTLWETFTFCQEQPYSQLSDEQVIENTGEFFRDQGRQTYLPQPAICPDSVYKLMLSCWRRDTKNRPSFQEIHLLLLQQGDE
Sequence of Recombinant human DDR1 (aa440-876 containing a GST tag) (Q08345 other isoform, or with tags, fused parts or gaps): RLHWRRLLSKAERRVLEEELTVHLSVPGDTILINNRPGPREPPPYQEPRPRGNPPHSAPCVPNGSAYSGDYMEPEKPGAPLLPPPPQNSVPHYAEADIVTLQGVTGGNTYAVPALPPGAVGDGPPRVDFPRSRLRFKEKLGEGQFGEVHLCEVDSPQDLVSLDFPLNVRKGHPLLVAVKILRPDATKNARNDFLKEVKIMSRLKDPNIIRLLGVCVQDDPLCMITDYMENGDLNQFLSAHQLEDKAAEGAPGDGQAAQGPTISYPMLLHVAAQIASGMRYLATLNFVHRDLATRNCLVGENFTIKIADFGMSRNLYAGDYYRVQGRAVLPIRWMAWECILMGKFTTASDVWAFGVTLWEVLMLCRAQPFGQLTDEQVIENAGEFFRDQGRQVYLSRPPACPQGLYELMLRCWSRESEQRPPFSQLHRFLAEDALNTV

| SMILES | DDR1 pIC50 [1] | DDR2 pIC50 [2] | IC50 [2] | IC50 [1] |
| --- | --- | --- | --- | --- |
| Cn1ncc2c(-c3ccc(-n4c(=O)n(CC(=O)NCC(F)(F)F)c5ccncc54)cc3)cncc21 [Example 77, 2-[3-[4-(1-methylpyrazolo[3,4-c]pyridin-4-yl)phenyl]-2-oxo-imidazo[4,5-c]pyridin-1-yl]-N-(2,2,2-trifluoroethyl)acetamide] | D (pIC50≤6) | D (pIC50≤6) | – | – |
| Cn1ncc2c(-c3ccc(-n4c(=O)n(CC(=O)N5CCC[C@@H](C(F)(F)F)C5)c5ccccc54)cc3)cncc21 [Example 29, 1-[4-(1-methylpyrazolo[3,4-c]pyridin-4-yl)phenyl]-3-[2-oxo-2-[(3R)-3-(trifluoromethyl)-1-piperidyl]ethyl]benzimidazol-2-one] | A (pIC50>8) | D (pIC50≤6) | – | – |
| Cc1cccc2c1n(-c1ccc(-c3cncc4c3cnn4C)cn1)c(=O)n2CC(=O)N1CCC[C@H]1C(F)(F)F [Example 59, 4-methyl-3-[5-(1-methylpyrazolo[3,4-c]pyridin-4-yl)-2-pyridyl]-1-[2-oxo-2-[(2S)-2-(trifluoromethyl)pyrrolidin-1-yl]ethyl]benzimidazol-2-one] | A (pIC50>8) | – | 10 to 100 nM | – |
| C[C@@H]1CCCN1C(=O)Cn1c(=O)n(-c2ccc(-c3cncc4c3cnn4C)cc2)c2ccccc21 [Example 27, 1-[4-(1-methylpyrazolo[3,4-c]pyridin-4-yl)phenyl]-3-[2-[(2R)-2-methylpyrrolidin-1-yl]-2-oxoethyl]benzimidazol-2-one] | – | D (pIC50≤6) | – | 10 to 100 nM |
| COc1cccc2c1n(-c1ccc(-c3cncc4c3cnn4C)cc1)c(=O)n2CC(=O)N[C@@H](C)C(F)(F)F [Example 85, 2-[4-methoxy-3-[4-(1-methylpyrazolo[3,4-c]pyridin-4-yl)phenyl]-2-oxo-benzimidazol-1-yl]-N-[(1S)-2,2,2-trifluoro-1-methyl-ethyl]acetamide] | D (pIC50≤6) | D (pIC50≤6) | – | – |
| Cc1cccc2c1n(-c1ccc(-c3cncc4c3cnn4C)cn1)c(=O)n2CC(=O)N1CCO[C@@H](C(F)(F)F)C1 [Example 60, 4-methyl-3-[5-(1-methylpyrazolo[3,4-c]pyridin-4-yl)-2-pyridyl]-1-[2-oxo-2-[(2R)-2-(trifluoromethyl)morpholin-4-yl]ethyl]benzimidazol-2-one] | – | – | 100 to 1000 nM | 10 to 100 nM |
| Cc1cc(-n2c(=O)n(CC(=O)NCC(F)(F)F)c3cccc(C)c32)cnc1-c1cncc2[nH]nc(C)c12 [Example 102, 2-[4-methyl-3-[5-methyl-6-(3-methyl-1H-pyrazolo[3,4-c]pyridin-4-yl)-3-pyridyl]-2-oxo-benzimidazol-1-yl]-N-(2,2,2-trifluoroethyl)acetamide] | – | D (pIC50≤6) | – | 100 to 1000 nM |
| Cn1ncc2c(-c3ccc(-n4c(=O)n(CC(=O)N5CCC[C@H]5C(F)F)c5ccccc54)cc3)cncc21 [Example 25, 1-[2-[(2S)-2-(difluoromethyl)pyrrolidin-1-yl]-2-oxo-ethyl]-3-[4-(1-methylpyrazolo[3,4-c]pyridin-4-yl)phenyl]benzimidazol-2-one] | A (pIC50>8) | – | 10 to 100 nM | – |
| Cc1cccc2c1n(-c1ccc(-c3cncc4[nH]ncc34)cc1)c(=O)n2CC(=O)NCC(F)(F)F [Example 44, 2-[4-methyl-2-oxo-3-[4-(1H-pyrazolo[3,4-c]pyridin-4-yl)phenyl]benzimidazol-1-yl]-N-(2,2,2-trifluoroethyl)acetamide] | – | – | 10 to 100 nM | < 10 nM |
| Cn1ncc2c(-c3ccc(-n4c(=O)n(CC(=O)NCC(F)(F)F)c5ccccc54)c(F)c3)cncc21 [Example 15, 2-[3-[2-fluoro-4-(1-methylpyrazolo[3,4-c]pyridin-4-yl)phenyl]-2-oxo-benzimidazol-1-yl]-N-(2,2,2-trifluoroethyl)acetamide] | – | D (pIC50≤6) | – | 100 to 1000 nM |
| Cc1cccc2c1n(-c1ccc(-c3cncc4c3cnn4C)cc1)c(=O)n2CC(=O)N1CCOCC1C(F)(F)F (stereo not drawn) [Example 39, 4-methyl-3-[4-(1-methylpyrazolo[3,4-c]pyridin-4-yl)phenyl]-1-[2-oxo-2-[3-(trifluoromethyl)morpholin-4-yl]ethyl]benzimidazol-2-one] | A (pIC50>8) | – | 10 to 100 nM | – |
| Cc1cc(-c2cncc3c2cnn3C)cnc1-n1c(=O)n(CC(=O)N[C@H](C)C(F)(F)F)c2cccc(C)c21 [Example 111] | – | D (pIC50≤6) | – | 100 to 1000 nM |
| Cc1cc(-c2cncc3c2cnn3C)cnc1-n1c(=O)n(CC(=O)NCC(F)(F)F)c2cccc(C)c21 [Example 110] | – | D (pIC50≤6) | – | 10 to 100 nM |
| Cc1cc(-c2cncc3c2cnn3C)cc(C)c1-n1c(=O)n(CC(=O)NCC(F)(F)F)c2ccccc21 [Example 90, 2-[3-[2,6-dimethyl-4-(1-methylpyrazolo[3,4-c]pyridin-4-yl)phenyl]-2-oxo-benzimidazol-1-yl]-N-(2,2,2-trifluoroethyl)acetamide] | – | D (pIC50≤6) | – | 100 to 1000 nM |
| Cn1ncc2c(-c3ccc(-n4c(=O)n(CC(=O)N5CCC[C@H]5C(F)(F)F)c5ccccc54)cn3)cncc21 [Example 65, 1-[6-(1-methylpyrazolo[3,4-c]pyridin-4-yl)-3-pyridyl]-3-[2-oxo-2-[(2S)-2-(trifluoromethyl)pyrrolidin-1-yl]ethyl]benzimidazol-2-one] | A (pIC50>8) | – | 100 to 1000 nM | – |
| Cc1cccc2c1n(-c1ccc(-c3cncc4[nH]ncc34)cn1)c(=O)n2CC(=O)N1CCO[C@@H](C(F)(F)F)C1 [Example 71, 4-methyl-1-[2-oxo-2-[(2R)-2-(trifluoromethyl)morpholin-4-yl]ethyl]-3-[5-(1H-pyrazolo[3,4-c]pyridin-4-yl)-2-pyridyl]benzimidazol-2-one] | A (pIC50>8) | – | 100 to 1000 nM | – |
| Cc1cccc2c1n(-c1ccc(-c3cncc4c3cnn4C)cc1)c(=O)n2CC(=O)N1CCC[C@H]1C(F)(F)F [Example 8, 4-methyl-3-[4-(1-methylpyrazolo[3,4-c]pyridin-4-yl)phenyl]-1-[2-oxo-2-[(2S)-2-(trifluoromethyl)pyrrolidin-1-yl]ethyl]benzimidazol-2-one] | A (pIC50>8) | A (pIC50>8) | – | – |
| Cc1nc(-c2cncc3[nH]nc(C)c23)ccc1-n1c(=O)n(CC(=O)NCC(F)(F)F)c2cccc(C)c21 [Example 103, 2-[4-methyl-3-[2-methyl-6-(3-methyl-1H-pyrazolo[3,4-c]pyridin-4-yl)-3-pyridyl]-2-oxo-benzimidazol-1-yl]-N-(2,2,2-trifluoroethyl)acetamide] | – | D (pIC50≤6) | – | 10 to 100 nM |
| COc1cc(-c2cncc3c2cnn3C)ccc1-n1c(=O)n(CC(=O)NCC(F)(F)F)c2ccccc21 [Example 88, 2-[3-[2-methoxy-4-(1-methylpyrazolo[3,4-c]pyridin-4-yl)phenyl]-2-oxo-benzimidazol-1-yl]-N-(2,2,2-trifluoroethyl)acetamide] | – | D (pIC50≤6) | – | 100 to 1000 nM |
| Cc1cccc2c1n(-c1ccc(-c3cncc4c3cnn4C)cc1)c(=O)n2CC(=O)N1CCO[C@H](C(F)(F)F)C1 [Example 42, 4-methyl-3-[4-(1-methylpyrazolo[3,4-c]pyridin-4-yl)phenyl]-1-[2-oxo-2-[(2S)-2-(trifluoromethyl)morpholin-4-yl]ethyl]benzimidazol-2-one] | A (pIC50>8) | – | 10 to 100 nM | – |
| Cc1nc(-n2c(=O)n(CC(=O)NCC(F)(F)F)c3cccc(C)c32)cnc1-c1cncc2[nH]nc(C)c12 [Example 105, 2-[4-methyl-3-[6-methyl-5-(3-methyl-1H-pyrazolo[3,4-c]pyridin-4-yl)pyrazin-2-yl]-2-oxo-benzimidazol-1-yl]-N-(2,2,2-trifluoroethyl)acetamide] | – | – | 100 to 1000 nM | 10 to 100 nM |
| Cn1ncc2c(-c3ccc(-n4c(=O)n(CC(=O)NCC(F)(F)F)c5cccc(C#N)c54)cc3)cncc21 [Example 74, 2-[4-cyano-3-[4-(1-methylpyrazolo[3,4-c]pyridin-4-yl)phenyl]-2-oxo-benzimidazol-1-yl]-N-(2,2,2-trifluoroethyl)acetamide] | – | D (pIC50≤6) | – | 10 to 100 nM |
| Cc1cccc2c1n(-c1ccc(-c3cncc4c3cnn4C)nc1)c(=O)n2CC(=O)N1CCC[C@H]1C(F)(F)F [Example 56, 4-methyl-3-[6-(1-methylpyrazolo[3,4-c]pyridin-4-yl)-3-pyridyl]-1-[2-oxo-2-[(2S)-2-(trifluoromethyl)pyrrolidin-1-yl]ethyl]benzimidazol-2-one] | A (pIC50>8) | – | 10 to 100 nM | – |
| Cc1nc(-c2cncc3c2cnn3C)cnc1-n1c(=O)n(CC(=O)NCC(F)(F)F)c2cccc(C)c21 [Example 96, 2-[4-methyl-3-[3-methyl-5-(1-methylpyrazolo[3,4-c]pyridin-4-yl)pyrazin-2-yl]-2-oxo-benzimidazol-1-yl]-N-(2,2,2-trifluoroethyl)acetamide] | A (pIC50>8) | – | 100 to 1000 nM | – |
